This is an account of results in PubChem BioAssay (NCI).

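A five-concentration, 48-hour dose response in 96-well plates underlies each endpoint, interpolated linearly between surrounding concentrations. The concentration for 50% growth inhibition is given as GI50. TGI is the concentration that stops growth completely.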 A value given as a limit tells only on which side of the number the result lay.

Experiment in all cases: NCI anticancer screen, dose series, 48 h
Assay [1] concerns DMS 114 small cell lung.
Assay [2] relates to UACC-62 melanoma.
Assay [3] relates to A549 NSCLC.
The subject of assay [4] is HCC-2998 colon.
Assay [5] concerns NCI-H460 lung.
For assay [6], the system named is LXFL 529 NSCLC.
In assay [7] the test system is EKVX NSCLC.
In assay [8] the test system is T-47D breast.
For assay [9], the system named is HS 578T breast.
Assay [10] relates to DU-145 prostate.

Turning to `CCOc1ccccc1NC(=O)CCc1nnc2s/c(=C\CCc3ccccc3)c(=O)n12`, the TGI in [1], in [2], in assay [3], in assay [4], in [5] and in assay [6] was over 100 µM in each case.
For `FC(F)(F)c1ccc(C=NC23CC4CC(CC(C4)C2)C3)cc1`, the TGI in [1], in [2], in [3], in assay [4], in assay [7] and in assay [5] was over 100 µM in each case.
With `CC1C=C(OC(=O)c2ccccc2)C(=O)C(n2cc(F)c(=O)n(C(=O)c3ccccc3)c2=O)O1` (centres undefined), the TGI was over 100 µM in assay [1]; 98.6 µM in assay [2]; over 100 µM in assay [3]; over 100 µM in [7]; over 100 µM in assay [5].
As to `Nc1nc2c(c3ncccc13)C(c1cccc(Cl)c1)Cc1ncccc1-2` (centres undefined), the GI50 was 3.28 µM in [8]; 3.83 µM in assay [9]; 0.628 µM in [2]; 3.08 µM in [3]; 2.77 µM in assay [4]; 4.9 µM in [7]. Moreover, the GI50 is 3.03 µM in [5] and 2.77 µM in [10]. Besides, the TGI is 38.5 µM in assay [8]; 34.4 µM in assay [9]; 16.6 µM in assay [2]; over 100 µM in [3]; 15.1 µM in assay [4]; over 100 µM in assay [7]. For the same molecule, the TGI in assay [5] was found to be 22.6 µM; in assay [10], 24.9 µM.
With `N#C/C(=C\c1ccc(Br)cc1)n1nnc2cccc(F)c21`, the GI50 in assay [8] was 1.08 µM; in assay [9], 2.5 µM; in assay [2], 1.35 µM; in assay [3], 2.8 µM; in [4], 1.56 µM; in assay [7] it was 1.62 µM. Moreover, the results for the GI50 in assay [5] and in assay [10] were 1.97 µM and 1.51 µM, respectively. The TGI in assay [8] was 4.44 µM; in assay [9], 8.14 µM; in [2], 3.46 µM; in assay [3], 13.2 µM; in [4], 3.13 µM; in [7] it was 3.02 µM. In addition, the TGI came out at 4.21 µM in assay [5] and 2.85 µM in assay [10].
Consider `COC(=O)[C@]12CC[C@@H](C)[C@H](C)[C@@H]1C1=CC[C@@H]3[C@@]4(C)C(C=O)=C[C@@](C)(COC(C)=O)[C@@H]4[C@H](O)C[C@@]3(C)[C@]1(C)CC2`, for which the GI50 was 2.75 µM in assay [8]; 2.67 µM in assay [9]; 1.76 µM in [2]; 3.29 µM in assay [3]; 1.83 µM in [4]; 2.76 µM in assay [7]. The GI50 in assay [5] is 1.89 µM; in assay [10], 1.91 µM. Also, the TGI amounted to 14.2 µM in assay [8]; 9.43 µM in assay [9]; 4.1 µM in assay [2]; 12.3 µM in assay [3]; 3.6 µM in [4]; 10.2 µM in [7]. For the same molecule, the TGI turned out to be 3.9 µM in assay [5] and 3.93 µM in [10].
For `COc1cc(/C=C/C(=O)c2cc(F)c(Cl)cc2Cl)cc(OC)c1OC`, the GI50 was 41.2 µM in [8]; 28.7 µM in assay [9]; 24.8 µM in assay [2]; 39.2 µM in [3]; 73 µM in assay [4]; over 100 µM in assay [7]. The GI50 in assay [5] is 48.3 µM; in assay [10], 68.6 µM. For the same molecule, the TGI in [8], in [9], in assay [2], in assay [3], in assay [4] and in [7] was over 100 µM each time. For the same molecule, the TGI in assay [5] and in assay [10] was over 100 µM each time.
With `CC(CN)[C@@H]1CC[C@]2(CO)CC[C@]3(C)[C@H](CC[C@@H]4[C@@]5(C)CCC(NCCO)C(C)(C)[C@@H]5CC[C@]43C)[C@@H]12` (some centres undefined), the GI50 in [8] is 2.01 µM; in [9], 1.87 µM; in assay [2] it was 1.8 µM; in assay [3], 1.68 µM; in assay [4] it was 1.89 µM; in assay [7], 2.1 µM. Besides, the results for the GI50 in assay [5] and in [10] were 1.79 µM and 2.34 µM, respectively. The TGI in assay [8] stood at 4.58 µM; in assay [9], 4.59 µM; in assay [2], 3.37 µM; in [3], 3.08 µM; in assay [4], 3.57 µM; in [7] it was 5.01 µM. Further, the figures for the TGI in assay [5] and in [10] were 3.43 µM and 5.32 µM, respectively.
On to `CN1CCN(c2ccc(-c3cnc4c(-c5csc6ccccc56)cnn4c3)cc2)CC1`, for which the GI50 in assay [8] was over 15 µM; in assay [9] it was 10.9 µM; in [2], over 15 µM; in assay [3], 3.11 µM; in assay [4], 6 µM; in assay [7], 9.79 µM. For the same molecule, the GI50 is 2.14 µM in [5] and 5.59 µM in [10]. The TGI in assay [8] was over 15 µM; in assay [9], over 15 µM; in [2], over 15 µM; in assay [3], 11.4 µM; in [4], over 15 µM; in assay [7], over 15 µM. The TGI is 4.41 µM in assay [5] and over 15 µM in assay [10].
For `Nc1ccn([C@H]2C[C@@H](O)[C@@H](CO)S2)c(=O)n1`, the GI50 in [8], in [9], in assay [2], in assay [3], in [4] and in [7] was over 100 µM each time. Besides, the GI50 in assay [5] was 34.9 µM; in [10], over 100 µM. Moreover, the TGI in assay [8], in [9], in assay [2], in assay [3], in assay [4] and in [7] was over 100 µM throughout. In addition, the TGI in assay [5] and in assay [10] was over 100 µM throughout.
